Values quoted from earlier work in patent US7323174B1, “Modulation of immune response and methods based thereon” (Arizona Board of Regents on behalf of The University of …, priority 2000, dated 2008).
No end group written: not given here.

Legend:
[1] = tested on: immunodeficiency-type retrovirus; details: individuals infected with an immunodeficiency-type retrovirus; described in U.S. Pat. No. 5,911,990
[2] = tested on: Th1 and Th2 cytokine production; details: individuals infected with an immunodeficiency-type retrovirus; described in U.S. Pat. No. 5,911,990

In the case of CKPISGHNSLFWYRQT [SEQ ID NO:1], the “progression to AIDS” value [1] is given as “suppress progression to AIDS” and the “aberrant Th1 and Th2 cytokine production” value [2] is given as “normalize aberrant Th1 and Th2 cytokine production”.
